pIC50, pKd: −log10 of the molar value. Like-named read-outs stand apart in the source and are kept apart here. Numbered stars: 1 amine (or outer) side, 2 acyl side, 3 side chain; on linkers, the order of the positions; unused ones are H or OH. Bridge positions count the residues as written; N and C are the ends. Square brackets hold non-standard residues; d marks the D form. Peptide text beside a SMILES is read from it. Trp(βS-Me,7-OMe) = COc1cccc2c([C@H](C)[C@H](N)C(=O)O)c[nH]c12; X34 = O=C([C@H](Cc1c[nH]c2c(Cl)c(F)ccc12)N[*:1])[*:2]; Ala(indazol-1-yl) = N[C@@H](Cn1ncc2ccccc21)C(=O)O; Trp(7-CN) = N#Cc1cccc2c(C[C@H](N)C(=O)O)c[nH]c12; Trp(7-Cl) = N[C@@H](Cc1c[nH]c2c(Cl)cccc12)C(=O)O; Phe(4-CONH2) = NC(=O)c1ccc(C[C@H](N)C(=O)O)cc1; Phe(4-COOH) = N[C@@H](Cc1ccc(C(=O)O)cc1)C(=O)O; 4Pal(3S-Me) = C[C@@H](c1ccncc1)[C@H](N)C(=O)O; Trp(7-aza) = N[C@@H](Cc1c[nH]c2ncccc12)C(=O)O; Phe(4-CH2NH2) = NCc1ccc(C[C@H](N)C(=O)O)cc1; Trp(1-Me) = Cn1cc(C[C@H](N)C(=O)O)c2ccccc21; Pip(5R-OH) = O=C(O)[C@@H]1CC[C@@H](O)CN1; X1 = O=C([C@@H]1CC[C@H](N[*:1])C1)[*:2]; NHCH2CH2SCH2CO = O=C(CSCCN[*:1])[*:2]; Pip(4-aza) = O=C(O)[C@@H]1CNCCN1; hPhe = N[C@@H](CCc1ccccc1)C(=O)O; 4Pal = N[C@@H](Cc1ccncc1)C(=O)O; NMeE = CN[C@@H](CCC(=O)O)C(=O)O; dHyp = O=C(O)[C@H]1C[C@H](O)CN1; Ahp(2) = CCCCC[C@H](N)C(=O)O; hSer = N[C@@H](CCO)C(=O)O; αMeS = C[C@](N)(CO)C(=O)O; NMeA = CN[C@@H](C)C(=O)O; Nle = CCCC[C@H](N)C(=O)O; Sar = CNCC(=O)O
Legend:
[1] = target: T1, human soluble TNFR1 (sTNFR1) (Homo sapiens, UniProt P19438); assay: Human sTNFR1-peptide displacement assay (LanthaScreen Eu TR-FRET binding assay)
T1 construct: made in house; host or cells: Sf21 (baculovirus)
T1 sequence (P19438 with tags, fused parts or gaps): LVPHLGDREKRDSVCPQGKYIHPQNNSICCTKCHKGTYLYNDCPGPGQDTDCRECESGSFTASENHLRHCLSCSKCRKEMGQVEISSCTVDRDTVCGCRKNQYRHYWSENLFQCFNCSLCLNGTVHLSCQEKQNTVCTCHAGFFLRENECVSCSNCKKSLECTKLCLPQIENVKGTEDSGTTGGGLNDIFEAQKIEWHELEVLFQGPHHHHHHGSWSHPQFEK
How it was run: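 Readout is the 665/615 nm TR-FRET ratio (Eu anti-His donor, streptavidin-Alexa647 acceptor), normalized to DMSO and saturating displacer, fit by Morrison-based five-parameter logistic for Kd^app. His-tagged sTNFR1 (1-211) prebound to 100 nM biotinylated peptide SEQ ID NO.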

[2] = target: T2, human TNFR1 extracellular domain (ECD) protein (Homo sapiens, UniProt P19438); assay: SPR binding affinity to captured human TNFR1 ECD
T2 construct: HRV 3C protease cleavage site (C); 6His (C, cleaved yes); made in house; host or cells: Sf21 insect cells (baculovirus), secreted
T2 sequence (P19438 30-211): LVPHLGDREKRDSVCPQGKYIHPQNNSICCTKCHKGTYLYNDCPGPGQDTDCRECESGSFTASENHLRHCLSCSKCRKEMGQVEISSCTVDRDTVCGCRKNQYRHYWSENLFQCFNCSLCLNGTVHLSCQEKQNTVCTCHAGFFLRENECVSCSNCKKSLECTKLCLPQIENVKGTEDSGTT
How it was run: (§1)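 Read-out: kon, koff and derived affinity from SPR response units. Human TNFR1 and TNFR2 ECD, Avi-tag biotinylated with BirA, captured on a streptavidin surface; peptides injected under laminar flow in HEPES-saline with EDTA, P20 and 2% DMSO.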

human TNFR2 ECD protein = target: T3, human TNFR2 ECD protein (Homo sapiens, UniProt P20333); assay: SPR off-target binding (selectivity) to human TNFR2 ECD
T3 construct: HRV 3C protease cleavage site (C); 6His (C, cleaved yes); made in house; host or cells: Sf21 insect cells (baculovirus), secreted
T3 sequence (P20333 23-257): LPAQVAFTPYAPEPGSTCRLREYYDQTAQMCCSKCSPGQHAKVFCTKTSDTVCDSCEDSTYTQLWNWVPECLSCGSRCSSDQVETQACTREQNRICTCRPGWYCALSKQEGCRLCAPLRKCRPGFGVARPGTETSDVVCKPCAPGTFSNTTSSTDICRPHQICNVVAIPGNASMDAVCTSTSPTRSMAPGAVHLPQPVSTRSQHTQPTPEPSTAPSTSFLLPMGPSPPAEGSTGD
How it was run: as §1

[3] = target: T4, TNFα-induced NF-κB signal transduction pathway (TNFR1 signaling) in THP-1 cells (Homo sapiens, UniProt P19438); assay: THP-1 Lucia NF-κB reporter cell assay, inhibition of TNFα-induced NF-κB signaling; type: cell-based; conditions: THP-1 NF-κB Lucia reporter cells, 10 ng/mL TNFα, 16-18 h, secreted luciferase; read-out: THP-1 IC50
T4 sequence (P19438 30-455): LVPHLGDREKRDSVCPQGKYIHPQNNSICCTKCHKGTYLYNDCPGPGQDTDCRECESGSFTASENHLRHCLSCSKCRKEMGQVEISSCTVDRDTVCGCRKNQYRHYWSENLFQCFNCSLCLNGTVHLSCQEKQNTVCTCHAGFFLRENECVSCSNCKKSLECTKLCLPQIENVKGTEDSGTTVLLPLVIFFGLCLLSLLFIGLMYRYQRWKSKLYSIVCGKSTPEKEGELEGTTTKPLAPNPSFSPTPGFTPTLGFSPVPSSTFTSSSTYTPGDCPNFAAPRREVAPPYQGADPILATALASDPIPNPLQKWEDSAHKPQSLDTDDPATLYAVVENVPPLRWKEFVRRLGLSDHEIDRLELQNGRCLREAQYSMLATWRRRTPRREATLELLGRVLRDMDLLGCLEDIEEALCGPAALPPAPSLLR
How it was run: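 IC50 from a 4-parameter logistic fit of secreted luciferase luminescence (QUANTI-Luc), normalised to min/max controls. Reporter THP-1 cells were exposed to peptides for 1 h at 37 °C before 10 ng/mL TNFα (final) was added overnight (16–18 h).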

SMILES	pKd [1]	pKd [2]	pKd (human TNFR2 ECD protein)	pIC50 [1]	pIC50 [3]	pKd ([2]; biotinylated human TNFR1 ECD on streptavidin chip, from kon and koff, read-out: SPR hTNFR1 KD)	pKd (human TNFR2 ECD protein; biotinylated human TNFR2 ECD on streptavidin chip, read-out: SPR hTNFR2 KD)
CCCCC[C@@H]1NC(=O)[C@@H]2CC[C@@H](C2)NC(=O)[C@H]([C@@H](C)c2c[nH]c3c(OC)cccc23)NC(=O)CN(C)C(=O)[C@H](Cc2ccc(C(N)=O)cc2)NC(=O)[C@H](Cc2ccc(C(N)=O)cc2)NC(=O)[C@](C)(CO)NC(=O)[C@H](Cc2c[nH]c3c(C#N)cccc23)NC(=O)[C@H](Cc2ccc(C(=O)O)cc2)NC(=O)[C@H](CC(N)=O)NC(=O)[C@H]2C[C@H](O)CN2C(=O)[C@H](Cc2c[nH]c3ccccc23)NC(=O)[C@H](CC(N)=O)NC(=O)[C@H]([C@@H](C)c2ccncc2)NC1=O [SEQ ID NO. 92] (cyclo([Ahp(2)][4Pal(3S-Me)]NW[dHyp]N[Phe(4-COOH)][Trp(7-CN)][αMeS][Phe(4-CONH2)][Phe(4-CONH2)][Sar][Trp(βS-Me,7-OMe)][X1]))	9.62	10.30	< 6.00				
CCCCC[C@@H]1NC(=O)[C@@H]2CC[C@@H](C2)NC(=O)[C@H]([C@@H](C)c2c[nH]c3c(OC)cccc23)NC(=O)CN(C)C(=O)[C@H](Cc2ccc(C(N)=O)cc2)NC(=O)[C@H](Cc2ccc(C(=O)O)cc2)NC(=O)[C@](C)(CO)NC(=O)[C@H](Cc2c[nH]c3c(Cl)c(F)ccc23)NC(=O)[C@H](Cc2ccncc2)NC(=O)[C@H](CC(N)=O)NC(=O)[C@H]2C[C@H](O)CN2C(=O)[C@H](Cc2c[nH]c3ccccc23)NC(=O)[C@@H]2CNCCN2C(=O)[C@H](Cc2ccncc2)NC1=O [SEQ ID NO. 112] (cyclo([4Pal][Pip(4-aza)]W[dHyp]N[4Pal][X34][αMeS][Phe(4-COOH)][Phe(4-CONH2)][Sar][Trp(βS-Me,7-OMe)][X1][Ahp(2)]))	9.62	10.52	< 6.00				
CCCC[C@@H]1NC(=O)CSC[C@@H](C(N)=O)NC(=O)[C@H]([C@@H](C)c2c[nH]c3c(OC)cccc23)NC(=O)CN(C)C(=O)[C@H](Cc2ccc(O)cc2)NC(=O)[C@H](Cc2ccc(C(N)=O)cc2)NC(=O)[C@](C)(CO)NC(=O)[C@H](Cc2c[nH]c3c(Cl)cccc23)NC(=O)[C@H](Cc2ccncc2)NC(=O)[C@H](CC(N)=O)NC(=O)[C@H](CCC(=O)O)N(C)C(=O)[C@H](Cc2cn(C)c3ccccc23)NC(=O)[C@@H]2CC[C@@H](O)CN2C(=O)[C@H](Cc2ccncc2)NC1=O [SEQ ID NO. 151] ({CH2CO}-[Nle][4Pal][Pip(5R-OH)][Trp(1-Me)][NMeE]N[4Pal][Trp(7-Cl)][αMeS][Phe(4-CONH2)]Y[Sar][Trp(βS-Me,7-OMe)]C-NH2; thioether N-14)	9.96	10.40	< 6.00	9.54			
COCC[C@@H]1NC(=O)[C@@H]2CC[C@@H](C2)NC(=O)[C@H]([C@@H](C)c2c[nH]c3c(OC)cccc23)NC(=O)CN(C)C(=O)[C@H](Cc2ccc(C(N)=O)cc2)NC(=O)[C@H](Cc2ccc(C(N)=O)cc2)NC(=O)[C@](C)(CO)NC(=O)[C@H](Cc2c[nH]c3c(C#N)cccc23)NC(=O)[C@H](Cc2ccc(C(=O)O)cc2)NC(=O)[C@H](CC(N)=O)NC(=O)[C@H]2C[C@H](O)CN2C(=O)[C@H](Cc2c[nH]c3ccccc23)NC(=O)[C@@H]2CC[C@@H](O)CN2C(=O)[C@H](Cc2ccncc2)NC1=O [SEQ ID NO. 194] (cyclo([4Pal][Pip(5R-OH)]W[dHyp]N[Phe(4-COOH)][Trp(7-CN)][αMeS][Phe(4-CONH2)][Phe(4-CONH2)][Sar][Trp(βS-Me,7-OMe)][X1][hSer](Me)))	10.30	10.40	< 6.00				
CCCC[C@@H]1NC(=O)CSCCNC(=O)[C@H]([C@@H](C)c2c[nH]c3c(OC)cccc23)NC(=O)CN(C)C(=O)[C@H](Cc2ccc(O)cc2)NC(=O)[C@H](Cc2ccc(C(=O)O)cc2)NC(=O)[C@](C)(CO)NC(=O)[C@H](Cc2c[nH]c3c(Cl)cccc23)NC(=O)[C@H](Cc2ccncc2)NC(=O)[C@H](CC(N)=O)NC(=O)[C@H](CCC(=O)O)N(C)C(=O)[C@H](Cc2c[nH]c3ncccc23)NC(=O)[C@H](CO)NC(=O)[C@H](Cc2ccc(CN)cc2)NC1=O [SEQ ID NO. 258] (cyclo([4Pal][Trp(7-Cl)][αMeS][Phe(4-COOH)]Y[Sar][Trp(βS-Me,7-OMe)][NHCH2CH2SCH2CO][Nle][Phe(4-CH2NH2)]S[Trp(7-aza)][NMeE]N))		9.70	< 6.00		7.94		
C[C@H]1C(=O)N[C@@H](CC(N)=O)C(=O)N[C@@H](Cc2ccncc2)C(=O)N[C@@H](Cc2c[nH]c3ccccc23)C(=O)N[C@@](C)(CO)C(=O)N[C@@H](Cc2ccc(C(=O)O)cc2)C(=O)N[C@@H](Cc2ccc(O)cc2)C(=O)N(C)CC(=O)N[C@@H](Cc2c[nH]c3ccccc23)C(=O)N[C@H](C(N)=O)CSCC(=O)N[C@@H](CCc2ccccc2)C(=O)N[C@@H](Cc2ccc(O)cc2)C(=O)N[C@@H](CO)C(=O)N[C@@H](Cn2ncc3ccccc32)C(=O)N1C [SEQ ID NO. 265] ({CH2CO}-[hPhe]YS[Ala(indazol-1-yl)][NMeA]N[4Pal]W[αMeS][Phe(4-COOH)]Y[Sar]WC-NH2; thioether N-14)					8.31	9.00	< 6.00

— patent publication US20240287138A1, “CYCLIC PEPTIDES FOR INHIBITING TNF RECEPTOR 1 ACTIVITY” (Merck Sharp & Dohme LLC, priority 2023, published 2024)
